Results reported in patent US7947854B2, “Bis-cationic compounds and use thereof” (The University of Sydney, priority 2003, dated 2011).
Converted amounts (≈) assume the structure as drawn. “And” between values parts separate entries of the source, which are not always exact repeats. Equal entries are not always repeated. One block for each molecule: values may come before it.

What was measured:
[1] = test system: Scedosporium apiospermum 1-003-056; assay: In vitro antifungal activity, filamentous fungi, NCCLS M38-A; format: cell-based; conditions: Scedosporium apiospermum, 1003056
Excerpt: (§1) The assay used for filamentous fungi (Aspergillus; Scedosporium; Fusarium) was that published by the National Committee for Clinical Laboratory Standards. 2002. Reference Method for Broth Dilution Antifungal Susceptibility Testing of Filamentous Fungi: Approved Standard. NCCLS document M38-A.Villanova, Pa., USA.

[2] = test system: Scedosporium prolificans 1-003-040; assay: as above; format: cell-based; conditions: Lomentospora prolificans, 1003040
Excerpt: as §1

[3] = test system: Aspergillus fumigatus ATCC 204 305; assay: as above; format: cell-based; conditions: Aspergillus fumigatus, ATCC204
Excerpt: as §1

[4] = test system: Fusarium solani 04-132-4207; assay: as above; format: cell-based; conditions: Fusarium solani, 041324207
Excerpt: as §1

[5] = test system: Aspergillus flavus ATCC 204 304; assay: as above; format: cell-based; conditions: Aspergillus flavus, ATCC204
Excerpt: as §1

[6] = test system: Aspergillus terreus ATCC 03-232-378; assay: as above; format: cell-based; conditions: Aspergillus terreus, ATCC03
Excerpt: as §1

[7] = test system: Cryptococcus neoformans ATCC 90112; assay: Antifungal susceptibility testing, microdilution MIC; format: cell-based; conditions: Cryptococcus neoformans, ATCC90112
In short: (§2)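 Standard microdilution method, run in duplicate, using serial dilutions of cationic compounds.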

[8] = test system: Candida albicans ATCC 10231; assay: as above; format: cell-based; conditions: Candida albicans, ATCC10231
In short: as §2

[9] = test system: VRE (Vancomycin resistant Enterococcus); assay: In vitro antibacterial activity, NCCLS M7-A6; format: cell-based
Method: (§3) Two bis-cationic compounds were tested for antibacterial activity. The assay used was that published by the National Committee for Clinical Laboratory Standards. 2003. Methods for Dilution Antimicrobial Susceptibility Tests for Bacteria That Grow Aerobically: Approved Standard—Sixth Edition. NCCLS document M7-A6. Villanova, Pa., USA.

[10] = test system: MRSA (methicillin resistant S. aureus); assay: In vitro antibacterial activity, NCCLS M7-A6; format: cell-based; conditions: Staphylococcus aureus, read-out: MIC MRSA (methicillin resistant S. aureus)
Method: as §3

[11] = test system: Pseudomonas ariginosa 122; assay: In vitro antibacterial activity, NCCLS M7-A6; format: cell-based
Method: as §3

[12] = test system: secreted phospholipase B (PLB activity); assay: Radiometric assay, secreted PLB activity; format: biochemical, Cryptococcus neoformans H99; conditions: for PLB, percentage inhibition of activity: Secretory Cryptococcal H99 Phospholipase
In short: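 Secreted enzyme was taken from cell-free supernatant of Cryptococcus isolate H99 cells incubated 24 h at 37° C. Reactions at 37° C, pH 4.0 imidazole acetate, used 800 μM DPPC with [14C]-dipalmitoyl PC and 1 μg protein for 22 min. PLB was measured as radiolabelled PC loss by TLC, with inhibition expressed versus inhibitor-free control; compounds were tested at 25 and 250 μM, then 2.5 and 0.25 μM.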

[13] = test system: secreted phospholipase B (LPL/LPTA activities); assay: Radiometric assay, secreted LPL and LPTA activities (Lyso assay); format: biochemical, Cryptococcus neoformans H99
Method: Fungal isolates and media. […] Isolate H99 was kindly supplied by Dr. Gary Cox (Duke University Medical Center, Durham, N.C., USA), and subcultured onto Sabouraud dextrose agar (SDA) at 30° C.
Preparation of supernatants containing secreted phospholipase activities. Isolate H99 was grown to confluence on SDA in 16 cm diameter Petri dishes for 72 h at 30° C. in air. Cells scraped from 10-20 dishes were washed sequentially with isotonic saline and imidazole buffer (10 mM imidazole, 2 mM CaCl2, 2 mM Mg Cl2, 56 mM D-Glucose, made up in isotonic saline, pH 5.5), resuspended in a volume of this buffer of about 10% of the cell volume, and incubated for 24 h at 37° C. The cell-free supernatant was separated by centrifugation as previously described and stored at −70° C.
(§4) Secreted LPL and LPTA activities were measured simultaneously in a reaction mixture containing 1-[^14C]palmitoyl lyso-PC (25,000 dpm) and carrier lyso-PC (final concentration 200 μM) in assay buffer. The reaction time was […] with 1 μg of total protein and LPL activity was measured by the rate of loss of 1-[^14C]palmitoyl lyso-PC with release of radiolabelled fatty acids. LPTA activity was estimated from the rate of formation of radiolabelled PC.
All reactions were terminated by adding 0.5 mL of chloroform:methanol (2:1 v/v). The reaction products were extracted by the method as disclosed in Bligh, E. C. and W. J. Dyer. 1959 ‘A rapid method of total lipid extraction and purification.’ Can. J. Biochem. Physiol. 37:911-917, separated by TLC and quantified as previously described. In the case of PLC activity, the TLC plates were developed in petroleum ether (BP 60-80° C.): diethyl ether: acetic acid (90:15:1, v/v/v) instead of chloroform:methanol:water (65:25:4, v/v/v).
Preparation of inhibitors and use in assays. The following compounds were tested (for structures, see FIG. 2): compound 1, 1,12-bis(tributylphosphonium)dodecane dibromide (Fluka AG, Buchs, Switzerland); compound 2, 1,10-bis(tributylammonium)-decane dibromide; compound 3, 1,12-bis(tributylammonium)do-decane dibromide (both synthesised in-house); compound 4, 1,10-bis(trimethylammonium)decane dibromide [“decamethonium”] (Sigma, St. Louis Mo., USA). All compounds were prepared as stock solutions of 700 μM in assay buffer containing 5 mM EDTA, which was then diluted serially with buffer to obtain solutions of 70, 7, 0.7 and 0.07 μM. In each assay, 45 μL of these solutions was used, and the final volume of 125 μL was made up of substrate, enzyme and buffer. The radiometric assay was carried out as above. Inhibition was calculated as the percent of substrates (DPPC or Lyso-PC) remaining in the case of PLB and LPL activities, or of DPPC produced, in the case of the LPTA activity. The amounts converted, or produced, in the inhibitor-free control were normalised to 100%, and the inhibition calculated against it. All assays were done in triplicate.
Under these conditions only PLB, LPL and LPTA activities (both secreted and cell-associated) were measured. Initially, compounds deemed to be potential inhibitors were assayed at 25 and 250 μM. Those showing some inhibition were then also assayed at 2.5 and 0.25 μM.

[14] = test system: Cryptococcus neoformans ATCC 90112; assay: In vitro antifungal activity, yeasts, NCCLS M27-A; format: cell-based; conditions: Cryptococcus neoformans, ATCC90112; Table 9
Excerpt: (§5) The assay used for yeasts (Candida; Cryptococcus) is that of the National Committee for Clinical Laboratory Standards. 1997. Reference Method for Broth Dilution Antifungal Susceptibility Testing of Yeasts: Approved Standard. NCCLS document M27-A.Villanova, Pa., USA as published in Ghannoum, M. A., A. S. Ibrahim, Y. Fu, M. C. Shafiq, J. E Edwards, Jr. and R. S. Criddle. 1992. Susceptibility testing of Cryptococcus neoformans: A microdilution technique. J. Clin. Microbiol. 30:2881-2886.

[15] = test system: Candida albicans ATCC 10231; assay: In vitro antifungal activity, yeasts, NCCLS M27-A; format: cell-based; conditions: Candida albicans, ATCC10231; Table 9
Excerpt: as §5

[16] = molecular target: T1, Porcine pancreatic phospholipase A2 (Sus scrofa, UniProt P00592); assay: Pancreatic phospholipase assay; format: biochemical; conditions: read-out: ppPLA2, percentage inhibition of activity
T1 construct: purchased Sigma, St. Louis MO, USA
T1 sequence (P00592 23-146): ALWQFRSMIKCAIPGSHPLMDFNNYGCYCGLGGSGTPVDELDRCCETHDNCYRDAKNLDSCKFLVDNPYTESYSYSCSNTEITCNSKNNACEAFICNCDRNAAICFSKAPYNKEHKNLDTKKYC
Method: Pancreatic phospholipase assay. Porcine pancreatic phospholipase A2 suspension in 3.2M ammonium sulfate (2.9 mg protein/mL, Sigma St.Louis Mo., USA) was used. One part of well mixed enzyme suspension was added to 4 parts of buffer (10 mM Tris/HCl, pH 8.2; 10 mM CaCl2. Activity and inhibition by test compounds was then measured by the radiometric method described in Example 2 for fungal PLB activity. However, 25 μL enzyme solution was used, and the reaction time was 1 hour. These conditions result in ˜60% substrate conversion in the inhibitor-free control.

[17] = test system: C. neoformans strain H99 phospholipases; assay: Inhibition of C. neoformans strain H99 phospholipases (all enzymes and activities); format: biochemical, Cryptococcus neoformans H99
Method: Radiometric assay method for phospholipases. Enzyme activities were measured as described previously in a final volume of 125 μL at 37° C. For the determination of secreted PLB activity, carrier dipalmitoyl phosphatidylcholine (DPPC, final concentration 800 μM) and 1,2-di[1-^14C] palmitoyl phosphatidylcholine (20,000 dpm) were dried under nitrogen and suspended in 125 mM imidazole acetate buffer (assay buffer, pH 4.0) by sonication using a Branson 450 sonifier. The reaction time was 22 min, using 1 μg total protein and PLB activity was determined by the rate of decrease of the radiolabelled PC substrate, with appearance of the label in free fatty acid. […] These activities were measured by the appearance of radiolabel from PC in Lyso PC, diacylglycerol and phosphatidic acid, respectively.
as §4, with “LPTA activity was estimated from the rate of formation of radiolabelled PC.” left out
All reactions were terminated by adding 0.5 mL of chloroform:methanol (2:1 v/v). […] 37:911-917, separated by TLC and quantified as previously described. […]

[18] = test system: Staphylococcus aureus 25923; assay: In vitro antibacterial activity, NCCLS M7-A6; format: cell-based
Method: as §3

[19] = test system: Streptococcus pneumonia 49619; assay: In vitro antibacterial activity, NCCLS M7-A6; format: cell-based; conditions: Streptococcus pneumoniae
Method: as §3

[20] = test system: Escherichia coli 25922; assay: In vitro antibacterial activity, NCCLS M7-A6; format: cell-based
Method: as §3

[21] = Table 7, read-out: MIC (μM) Crypto. (ATCC 90112)
[22] = Table 7, read-out: MIC (μM) C. alb. (10231)

SMILES: CCCC[N+](CCCC)(CCCC)CCCCCCCCCCCCCCCC[N+](CCCC)(CCCC)CCCC [1,16-bis-(tributylammonium)hexadecane]
MIC [1]: 3.6 µg/mL and 5.5 µM
MIC [2]: 7.3 µg/mL and 11 µM
MIC [3]: 7.3 µg/mL and 11 µM
MIC [4]: 14.6 µg/mL and 22 µM
MIC [5]: 14.6 µg/mL and 22 µM
MIC [6]: 7.3 µg/mL and 11 µM
MIC [7, 21]: 2.2 µM
MIC [8, 22]: 5.5 µM
MIC [9]: 3.6 µg/mL and 5.5 µM
MIC [10]: 5 µg/mL and 11 µM
MIC [11]: 106 µg/mL and 160 µM
PLB assay (% inhibition) ([12]; 25 μM): 48%
PLB assay (% inhibition) ([12]; 250 μM): 62%
Lyso assay (% inhibition) LPL ([13]; 25 μM): 5%
Lyso assay (% inhibition) LPTA ([13]; 25 μM): 15%
Lyso assay (% inhibition) LPL ([13]; 250 μM): 10%
Lyso assay (% inhibition) LPTA ([13]; 250 μM): 6%
MIC [14]: 3.6 µg/mL and 5.5 µM
MIC [15]: 7.2 µg/mL and 11 µM

SMILES: C[N+](C)(C)CCCCCCCCCC[N+](C)(C)C [Compound 4, 1,10-bis(trimethylammonium)decane dibromide, reference compound]
MIC ([7]; Table 6, no visible growth after 72 h at 35° C., read-out: MIC C. neof. ATCC 90112): 88 µM
MIC [7, 21]: ≥ 350 µM
MIC ([8]; Table 6, no visible growth after 48 h at 35° C., read-out: MIC C. albicans ATCC 10231): > 350 µM
MIC [8, 22]: ≥ 350 µM
PLB assay (% inhibition) ([12]; 0.25 μM): 250 μM = 0% 25 μM = 0% 2.5 μM = 0% 0.25 μM = 0%
PLB assay (% inhibition) ([12]; 2.5 μM): 250 μM = 0% 25 μM = 0% 2.5 μM = 0% 0.25 μM = 0%
PLB, percentage inhibition of activity ([12]; 2.5 μM): 0%
PLB assay (% inhibition) ([12]; 25 μM): 250 μM = 0% 25 μM = 0% 2.5 μM = 0% 0.25 μM = 0%
PLB, percentage inhibition of activity ([12]; 25 μM): 0%
PLB assay (% inhibition) ([12]; 250 μM): 250 μM = 0% 25 μM = 0% 2.5 μM = 0% 0.25 μM = 0%
PLB, percentage inhibition of activity ([12]; 250 μM): 0%
inhibition at 2.5 µM [16]: 0%
inhibition at 25 µM [16]: 0%
inhibition at 250 µM [16]: 0%
enzyme (phospholipase) inhibition, in words [17]: neither enzyme inhibition
Lyso assay (% inhibition) LPL ([13]; 0.25 μM): 250 μM = 0% 25 μM = 0% 2.5 μM = 0% 0.25 μM = 0%
Lyso assay (% inhibition) LPTA ([13]; 0.25 μM): 250 μM = 0% 25 μM = 0% 2.5 μM = 0% 0.25 μM = 0%
Lyso assay (% inhibition) LPL ([13]; 2.5 μM): 250 μM = 0% 25 μM = 0% 2.5 μM = 0% 0.25 μM = 0%
Lyso assay (% inhibition) LPTA ([13]; 2.5 μM): 250 μM = 0% 25 μM = 0% 2.5 μM = 0% 0.25 μM = 0%
Lyso assay (% inhibition) LPL ([13]; 25 μM): 250 μM = 0% 25 μM = 0% 2.5 μM = 0% 0.25 μM = 0%
Lyso assay (% inhibition) LPTA ([13]; 25 μM): 250 μM = 0% 25 μM = 0% 2.5 μM = 0% 0.25 μM = 0%
Lyso assay (% inhibition) LPL ([13]; 250 μM): 250 μM = 0% 25 μM = 0% 2.5 μM = 0% 0.25 μM = 0%
Lyso assay (% inhibition) LPTA ([13]; 250 μM): 250 μM = 0% 25 μM = 0% 2.5 μM = 0% 0.25 μM = 0%

MIC [18]: 0.25 to 0.5 µg/mL (≈ 0.684 to 1.37 µM)
MIC [19]: 0.06 to 0.12 µg/mL (≈ 0.164 to 0.328 µM)
MIC [20]: 8 to 16 µg/mL (≈ 21.9 to 43.8 µM)
SMILES: CC1(C)S[C@@H]2[C@H](NC(=O)[C@H](N)c3ccc(O)cc3)C(=O)N2[C@H]1C(=O)O [amoxicillin, reference compound]

SMILES: CN[C@H](CC(C)C)C(=O)N[C@H]1C(=O)N[C@@H](CC(N)=O)C(=O)N[C@H]2C(=O)N[C@H]3C(=O)N[C@H](C(=O)N[C@H](C(=O)O)c4cc(O)cc(O)c4-c4cc3ccc4O)[C@H](O)c3ccc(c(Cl)c3)Oc3cc2cc(c3O[C@@H]2O[C@H](CO)[C@@H](O)[C@H](O)[C@H]2O[C@H]2C[C@](C)(N)[C@H](O)[C@H](C)O2)Oc2ccc(cc2Cl)[C@H]1O [vancomycin, reference compound]
MIC [10]: 1 µg/mL (≈ 0.69 µM)
